Test results from US8030500B2, “Substituted isoindoles for the treatment and/or prevention of Aβ- related pathologies” (AstraZeneca AB, priority 2008, dated 2011).
Where a name gives a salt, the structure may show the parent alone.

Target: T1, human β-Secretase (Homo sapiens, UniProt P56817)
T1 construct: soluble part of the human β-Secretase (AA 1-AA 460); Fc domain of IgG1; made in house
Assay: TR-FRET assay (β-secretase enzyme, sBACE-Fc)
Assay type: biochemical
Settings: soluble human β-secretase (sBACE-Fc), substrate (Europium)[…](Qsy7) 100 nM, pH4.5; read-out: IC50 in TR-FRET assay
Protocol: The β-secretase enzyme used in the TR-FRET is prepared as follows:
The cDNA for the soluble part of the human β-Secretase (AA 1-AA 460) was cloned using the ASP2-Fc10-1-IRES-GFP-neoK mammalian expression vector. The gene was fused to the Fc domain of IgG1 (affinity tag) and stably cloned into HEK 293 cells.
The robotic systems Biomek FX and Velocity 11 were used for all liquid handling and the enzyme and substrate solutions were kept on ice until they were placed in the robotic system. Enzyme (9 μl) was added to the plate then 1 μl of compound in dimethylsulphoxide was added, mixed and pre-incubated for 10 minutes. Substrate (10 μl) was then added, mixed and the reaction proceeded for 15 minutes at room temperature. The reaction was stopped with the addition of Stop solution (7 μl, NaAcetate, pH 9). […] The dimethylsulphoxide control, instead of test compound, defined the 100% activity level and 0% activity was defined by wells lacking enzyme (replaced with reaction buffer).

T1 sequence (P56817 22-460): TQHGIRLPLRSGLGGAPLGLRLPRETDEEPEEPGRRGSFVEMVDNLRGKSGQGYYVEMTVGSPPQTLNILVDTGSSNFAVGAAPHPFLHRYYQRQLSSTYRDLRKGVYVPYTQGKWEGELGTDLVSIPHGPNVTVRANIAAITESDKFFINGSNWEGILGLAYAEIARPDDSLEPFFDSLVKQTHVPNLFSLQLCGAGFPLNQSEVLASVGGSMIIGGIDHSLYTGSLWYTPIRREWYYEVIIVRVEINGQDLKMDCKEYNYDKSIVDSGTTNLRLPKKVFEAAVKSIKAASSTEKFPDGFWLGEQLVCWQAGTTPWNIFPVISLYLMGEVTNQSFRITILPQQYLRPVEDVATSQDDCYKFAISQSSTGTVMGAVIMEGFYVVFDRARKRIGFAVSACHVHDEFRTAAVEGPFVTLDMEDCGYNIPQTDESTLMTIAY

Structure (SMILES) | IC50 [nM]
COc1ccnc(-c2cc(C3(c4cncnc4)N=C(N)c4c(F)cccc43)ccc2F)c1 (centres unmarked) [Example 19, 4-Fluoro-1-(4-fluoro-3-(4-methoxypyridin-2-yl)phenyl)-1-(pyrimidin-5-yl)-1H-isoindol-3-amine] | 4100
COc1ccc(C2(c3ccnc(C(F)(F)F)c3)N=C(N)c3c(F)cccc32)cc1-c1cncnc1 (centres unmarked) [Example 51, 4-Fluoro-1-(4-methoxy-3-(pyrimidin-5-yl)phenyl)-1-(2-(trifluoromethyl)pyridin-4-yl)-1H-isoindol-3-amine] | 5600
NC1=NC(c2ccncc2)(c2ccc(F)c(-c3cncnc3)c2)c2cccc(F)c21 (centres unmarked) [Example 16, 4-Fluoro-1-(4-fluoro-3-(pyrimidin-5-yl)phenyl)-1-(pyridin-4-yl)-1H-isoindol-3-amine] | 320
NC1=NC(c2ccncc2)(c2cccc(-c3cncc(F)c3)c2)c2cccc(F)c21 (centres unmarked) [Example 15, 4-Fluoro-1-(3-(5-fluoropyridin-3-yl)phenyl)-1-(pyridin-4-yl)-1H-isoindol-3-amine] | 140
COc1ccnc(-c2cccc(C3(c4ccnc(OC)c4)N=C(N)c4c(F)cccc43)c2)c1 (centres unmarked) [Example 38, 4-Fluoro-1-(3-(4-methoxypyridin-2-yl)phenyl)-1-(2-methoxypyridin-4-yl)-1H-isoindol-3-amine] | 430
COc1c(C)cc(C2(c3ccnc(-c4cncnc4)c3)N=C(N)c3c(F)cccc32)cc1F (centres unmarked) [Example 34, 4-Fluoro-1-(3-fluoro-4-methoxy-5-methylphenyl)-1-(2-(pyrimidin-5-yl)pyridin-4-yl)-1H-isoindol-3-amine] | 81
Cc1cc(C2(c3ccnc(-c4cncnc4)c3)N=C(N)c3c(F)cccc32)cc(C(F)F)n1 (centres unmarked) [Example 33, 1-(2-(Difluoromethyl)-6-methylpyridin-4-yl)-4-fluoro-1-(2-(pyrimidin-5-yl)pyridin-4-yl)-1H-isoindol-3-amine] | 730
COc1cccc(-c2cccc(C3(c4ccncc4)N=C(N)c4c(F)cccc43)c2)c1F (centres unmarked) [Example 14, 4-Fluoro-1-(2′-fluoro-3′-methoxybiphenyl-3-yl)-1-(pyridin-4-yl)-1H-isoindol-3-amine] | 95
COc1cccc(-c2cc(C3(c4cncnc4)N=C(N)c4c(F)cccc43)ccc2F)c1F (centres unmarked) [Example 18, 1-(2′,6-Difluoro-3′-methoxybiphenyl-3-yl)-4-fluoro-1-(pyrimidin-5-yl)-1H-isoindol-3-amine] | 3400
NC1=NC(c2ccnc(-c3cncnc3)c2)(c2ccnc(C(F)F)c2)c2cccc(F)c21 (centres unmarked) [Example 42, 1-(2-(Difluoromethyl)pyridin-4-yl)-4-fluoro-1-(2-(pyrimidin-5-yl)pyridin-4-yl)-1H-isoindol-3-amine] | 310
COc1c(C)cc(C2(c3ccnc(-c4cncnc4)c3)N=C(N)c3c(F)cccc32)cc1C (centres unmarked) [Example 35, 4-Fluoro-1-(4-methoxy-3,5-dimethylphenyl)-1-(2-(pyrimidin-5-yl)pyridin-4-yl)-1H-isoindol-3-amine] | 35
N#Cc1cncc(-c2cc(C3(c4ccncc4)N=C(N)c4c(F)cccc43)ccc2F)c1 (centres unmarked) [Example 26, 5-(5-(3-Amino-4-fluoro-1-(pyridin-4-yl)-1H-isoindol-1-yl)-2-fluorophenyl) nicotinonitrile] | 460
COc1c(C)cc(C2(c3cccc(-c4cncnc4)c3)N=C(N)c3c(F)cccc32)nc1C (centres unmarked) [Example 44, 4-Fluoro-1-(5-methoxy-4,6-dimethylpyridin-2-yl)-1-(3-(pyrimidin-5-yl)phenyl)-1H-isoindol-3-amine] | 79

The remaining compounds from weak to strong by IC50, led by results:

IC50 [nM] | Structure (SMILES)
2000 | N#Cc1cncc(-c2ccc(F)c(C3(c4ccnc(C(F)(F)F)c4)N=C(N)c4c(F)cccc43)c2)c1 (centres unmarked) [Example 7, 5-(3-(3-Amino-4-fluoro-1-(2-(trifluoromethyl)pyridin-4-yl)-1H-isoindol-1-yl)-4-fluorophenyl)nicotinonitrile]
1800 | Cc1cc(C2(c3cc(-c4cncc(C#N)c4)ccc3F)N=C(N)c3c(F)cccc32)ccn1 (centres unmarked) [Example 3, 5-(3-(3-Amino-4-fluoro-1-(2-methylpyridin-4-yl)-1H-isoindol-1-yl)-4-fluorophenyl)nicotinonitrile]
870 | Cc1cc(C2(c3cccc(-c4cncc(C#N)c4)c3)N=C(N)c3c(F)cccc32)cc(C)n1 (centres unmarked) [Example 22, 5-(3-(3-Amino-1-(2,6-dimethylpyridin-4-yl)-4-fluoro-1H-isoindol-1 yl)phenyl)nicotinonitrile]
600 | COc1ncc(C2(c3cccc(-c4cncnc4)c3)N=C(N)c3c(F)cccc32)cc1C(F)(F)F (centres unmarked) [Example 49, 4-Fluoro-1-(6-methoxy-5-(trifluoromethyl)pyridin-3-yl)-1-(3-(pyrimidin-5-yl)phenyl)-1 H-isoindol-3-amine]
490 | COc1c(C)cc(C2(c3ccnc(-c4cncnc4)c3)N=C(N)c3c(F)cccc32)nc1C (centres unmarked) [Example 36, 4-Fluoro-1-(5-methoxy-4,6-dimethylpyridin-2-yl)-1-(2-(pyrimidin-5-yl)pyridin-4-yl)-1H-isoindol-3-amine]
370 | N#Cc1cncc(-c2cc(C3(c4ccnc(C(F)(F)F)c4)N=C(N)c4c(F)cccc43)ccc2F)c1 (centres unmarked) [Example 25, 5-(5-(3-Amino-4-fluoro-1-(2-(trifluoromethyl)pyridin-4-yl)-1H-isoindol-1-yl)-2-fluorophenyl) nicotinonitrile trifluoroacetate]
320 | NC1=NC(c2cccc(-c3cnccn3)c2)(c2ccnc(C(F)(F)F)c2)c2cccc(F)c21 (centres unmarked) [Example 30, 4-Fluoro-1-(3-(pyrazin-2-yl)phenyl)-1-(2-(trifluoromethyl)pyridin-4-yl)-1H-isoindol-3-amine]
110 | COc1ccc(C2(c3cccc(-c4cncnc4)c3)N=C(N)c3c(F)cccc32)cc1 (centres unmarked) [Example 17, 4-Fluoro-1-(4-methoxyphenyl)-1-(3-(pyrimidin-5-yl)phenyl)-1H-isoindol-3-amine]
87 | NC1=NC(c2cccc(-c3cnccn3)c2)(c2ccnc(C3CC3)c2)c2cccc(F)c21 (centres unmarked) [Example 37, 1-(2-Cyclopropylpyridin-4-yl)-4-fluoro-1-(3-(pyrazin-2-yl)phenyl)-1H-isoindol-3-amine trifluoroacetate]
42 | COc1c(C)cc(C2(c3cccc(-c4cncnc4)c3)N=C(N)c3c(F)cccc32)cc1C#N (centres unmarked) [Example 54, 5-(3-Amino-4-fluoro-1-(3-(pyrimidin-5-yl)phenyl)-1H-isoindol-1-yl)-2-methoxy-3-methylbenzonitrile]
